In US20080318912A1, “Medicaments for Treating Chronic Respiratory Disease” (priority 2004, published 2008):
Read-outs that look alike come from different tables or passages of the source.

Columns and labels:
[1] = test system: TS induced inflammation (cells recovered in the BAL); assay: Tobacco smoke (TS) induced inflammation, BAL cell counts 24 h after 11 daily exposures; assay type: in vivo, A/J mice; details: for Inhibition, Eosinophils (BAL) / Inhibition, Epithelial Cells (BAL) / Inhibition, Lymphocytes (BAL) / Inhibition, Macrophages (BAL) / Inhibition, Neutrophils (BAL) / Inhibition, Total Cells (BAL): 11 daily TS exposures
Source text: Female inbred AJ mice (body weights on initial day of use: 17.2-27.4 g) were obtained from Harlan, full barrier bred and certified free from specified micro-organisms on receipt. The mice were housed, up to 5 per cage, in individually ventilated, polycarbonate solid bottomed cages (IVC) with grade 8 aspen chip bedding. Environment (airflow, temperature and humidity) within the cages was controlled by the IVC system (Techniplast). Food (RM 1, Special Diet Services) and water were provided ad libitum. Individual animals were identified by unique coloured “pentel” markings on their tails, weighed and randomly assigned to treatment groups.
The required quantity of compound was placed into a mortar. Half the required volume CMC was slowly added to form a fine paste and then this was carefully added back to a container. The residual volume of CMC required to achieve the required dose is used to wash out the mortar and the washings added back to the container. For the combination dose, each compound was formulated at double the final required concentration and an equal volume of each compound added together. […]
In this exposure protocol, mice were exposed in groups of 5 in individual clear polycarbonate chambers (27 cm×16 cm×12 cm). The TS from the cigarettes was allowed to enter the exposure chambers at a flow rate of 100 ml/min. In order to minimise any potential problems caused by repeated exposure to a high level of TS (6 cigarettes), the exposure of the mice to TS was increased gradually over the exposure period to a maximum of 6 cigarettes. The exposure schedule used in this study was as follows:
(§1) The trachea was cannulated using a Portex nylon intravenous cannula (pink luer fitting) shortened to approximately 8 mm. Phosphate buffered saline (PBS) containing heparin (10 units/ml) was used as the lavage fluid. A volume of 0.4 ml was gently instilled and withdrawn 3 times using a 1 ml syringe and then placed in an Eppendorf tube and kept on ice prior to subsequent determinations.
(§2) Lavage fluid was separated from cells by centrifugation and the supernatant decanted and frozen for subsequent analysis. The cell pellet was re-suspended in a known volume of PBS and total cell numbers calculated by counting a stained (Turks stain) aliquot under a microscope using a haemocytometer.
(§3) The residual cell pellet was diluted to approximately 10^5 cells per ml. A volume of 500 μl was placed in the funnel of a cytospin slide and centrifuged for 8 min at 800 rpm. The slide was air dried and stained using ‘Kwik-Diff’ solutions (Shandon) as per the proprietary instructions. When dried and cover-slipped, differential cells were counted using light microscopy. Up to 400 cells were counted by un biased operator using light microscopy. Cells were differentiated using standard morphometric techniques.
In addition, animals receiving steroid or the steroid combination were dosed with steroid 20 h prior to the first TS exposure. The control group of mice (shams) received vehicle on days 1 to 11 and were exposed to air daily for a maximum of 50 minutes per day. BAL was performed on day 12, 24 h following the eleventh and final TS exposure.
Since tests for normality were positive the data was subjected to a one way analysis of variance test (ANOVA), followed by a Bonferroni correction for multiple comparisons in order to test for significance between treatment groups. A “p” value of <0.05 was considered to be statistically significant. Percentage inhibitions were automatically calculated within the Excel spreadsheets for the cell data using the formula below: […]
Animals were sacrificed 24 h post the final exposure to TS/air. A BAL was performed and the total number of cells recovered counted. Data are presented as individual points and the mean values shown. Data are from 9-10 animals per group. Statistical analysis was by ANOVA. A “p” value of <0.05 was considered statistically significant. ns=not statistically significant.

[2] = test system: LPS induced increases in BAL cells; assay: LPS challenge induced inflammation, BAL cell counts 24 h post challenge; assay type: in vivo, A/J mice
Experimental: Previous studies have shown that peak BAL neutrophilia is achieved 24 h post intranasal challenge with LPS at 0.3 μg. In the studies reported here this dose of LPS and this time point were employed. Control animals received phosphate buffered saline (PBS) intranasally.
Approximately 3 min prior to intra-nasal challenge anaesthesia was induced by isofluorane inhalation. Vehicle (PBS) or LPS was instilled at 50 μl per mouse. The LPS concentration was 6 μg/ml (0.3 μg per mouse). Animals were allowed to recover in a heated box at 37° C. and then returned to the home cage.
as §1, §2, §3
Animals were sacrificed 24 h post the LPS challenge. A BAL was performed and the total number of cells recovered counted. Data are presented as individual points and the mean values shown. Data are from 9-10 animals per group. Statistical analysis was by ANOVA. […]

phosphodiesterases = details: cited from earlier work
[3] = 250 or 375 mg theophylline with 400 μg budesonide twice daily, asthma patients; cited from earlier work
[4] = Pharmacokinetic evaluation of plasma levels of theophylline after oral dosing; assay type: in vivo, A/J mice; details: for concentration at 15 min / concentration at 30 min / concentration at 60 min / concentration at 240 min: A/J, mouse, plasma; for concentration at 15 min: 15 minutes post dosing; for concentration at 60 min: 60 minutes post dosing; for concentration at 240 min: 240 minutes post dosing
Experimental: The collected blood was mixed and decanted into eppendorf tubes before centrifugation in a microftige. Plasma was collected and stored at −80° C. prior to analysis by an HPLC/MS/MS method. The equipment used in the measurement of plasma levels were a Micromann Quatro Micro Mass Spectrometer (Micromass UK Limited) and a Waters 2795 Alliance HT liquid chromatograph (Waters USA).
Samples were prepared for analysis by adding 200 μl of acetonitrile (containing 0.25 mg/l dextrorphan as an internal standard) to 50 μl of each thawed sample and standard and mixed vigorously. Each sample and standard was then centrifuged at 1000 g for 2 minutes and the supernatant removed for LC-MS/MS analysis.
Analysis of theophylline and dextrorphan was carried out using reverse phase HPLC with tandem mass spectrometric detection (LC-MS/MS). Positive ions for parent compound and a specific fragment product were monitored in a Multiple Reaction Monitoring mode using a Micromass Quatro Micro Mass Spectrometer with Micromass MassLynx software version 4.0. A 25 μl aliquot of each sample and standard was injected onto the liquid chromatography system.

[5] = test system: adenosine receptors (A1 and A2 receptors); details: at therapeutic concentrations; cited from earlier work
[6] = cited from earlier work
[7] = dexamethasone 0.3 mg/kg p.o. twice daily, BAL 24 h post
[8] = dexamethasone 0.3 mg/kg p.o. at -20, -1 and 6 h relative to LPS (0.3 μg i.n.), BAL 24 h post challenge
[9] = theophylline 3 mg/kg p.o. twice daily, BAL 24 h post

C[C@@H]1C[C@H]2[C@@H]3CCC4=CC(=O)C=C[C@]4(C)[C@@]3(F)[C@@H](O)C[C@]2(C)[C@@]1(O)C(=O)CO [Dexamethasone, dexamethasone]
Inhibition, Eosinophils (BAL) [1, 7]: −94% | Inhibition, Epithelial Cells (BAL) [1, 7]: −20% | Inhibition, Lymphocytes (BAL) [1, 7]: −7% | Inhibition, Macrophages (BAL) [1, 7]: −14% | Inhibition, Neutrophils (BAL) [1, 7]: −46% | Inhibition, Total Cells (BAL) [1, 7]: −16% | Reduction of neutrophils in BAL [2, 8]: 71% | Reduction of total cells in BAL [2, 8]: 68%

Cn1c(=O)c2[nH]cnc2n(C)c1=O [Theophylline, 3,7-dihydro-1,3-dimethyl-1H-purine-2,6-dione]
Inhibitory effect on any of the specific cell types (BAL) ([1]; theophylline 3 mg/kg alone p.o., 1 h prior to and 6 h post TS, 11 days): No statistically significant inhibitory effect | Inhibition, Total Cells (BAL) ([1]; theophylline 3 mg/kg p.o. twice daily (-1 h and +6 h), BAL 24 h post final exposure): −11% | Inhibition, Eosinophils (BAL) [1, 9]: −56% | Inhibition, Epithelial Cells (BAL) [1, 9]: −18% | Inhibition, Lymphocytes (BAL) [1, 9]: 1% | Inhibition, Macrophages (BAL) [1, 9]: −4% | Inhibition, Neutrophils (BAL) [1, 9]: −10% | Anti-inflammatory activity in the COPD (TS) model ([1]; theophylline given alone): failed to demonstrate any significant anti-inflammatory activity | Inhibition of phosphodiesterases (phosphodiesterases): weak and nonselective inhibitor | Plasma concentration achieved (median value) [3]: 8700 ng/mL | concentration at 15 min ([4]; oral dose 0.3 mg/kg, mean ± SD): 130 ± 6 ng/mL | concentration at 30 min ([4]; oral dose 0.3 mg/kg, 30 minutes post dosing, mean ± SD): 140 ± 25 ng/mL | concentration at 60 min ([4]; oral dose 0.3 mg/kg, mean ± SD): 256 ± 198 ng/mL | concentration at 240 min ([4]; oral dose 0.3 mg/kg, mean ± SD): 65 ± 11 ng/mL | concentration at 15 min ([4]; oral dose 1 mg/kg, mean ± SD): 740 ± 760 ng/mL | concentration at 30 min ([4]; oral dose 1 mg/kg, 30 minutes post dosing, mean ± SD): 660 ± 122 ng/mL | concentration at 60 min ([4]; oral dose 1 mg/kg, mean ± SD): 410 ± 84 ng/mL | concentration at 240 min ([4]; oral dose 1 mg/kg, mean ± SD): 60 ± 15 ng/mL | concentration at 15 min ([4]; oral dose 3 mg/kg, mean ± SD): 1860 ± 290 ng/mL | concentration at 30 min ([4]; oral dose 3 mg/kg, 30 minutes post dosing, mean ± SD): 3660 ± 2640 ng/mL | concentration at 60 min ([4]; oral dose 3 mg/kg, mean ± SD): 1470 ± 110 ng/mL | concentration at 240 min ([4]; oral dose 3 mg/kg, mean ± SD): 90 ± 100 ng/mL | Plasma concentrations at all time points ([4]; oral dose 0.3 mg/kg): less than 1 mg/l | Time of peak levels ([4]; oral dose 3 mg/kg): 30 min | Plasma level of the one animal above 5 mg/l ([4]; oral dose 3 mg/kg, 30 minute time point, single animal): 6.7 mg/A | Plasma Levels ([4]; oral dose 3 mg/kg, 30 minutes post dosing, mean ± SD, 3 mg/kg): 3660 ± 2640 ng/mL | Inhibition of adenosine receptors (antagonism of A1 and A2 receptors) [5]: potent inhibitor | Activity on LPS induced pulmonary inflammation ([2]; theophylline at the dose level tested (0.3 mg/kg p.o.)): without activity | Bioavailability ([6]; absorption from the gastrointestinal tract): 90-100% | Mean plasma half-life ([6]; adults): about 8 hours | Plasma levels regarded as being necessary for anti-inflammatory efficacy ([6]; in vivo): 10000 to 20000 ng/mL | Plasma half-life ([6]; premature neonates): approximately 30 hours | Time to peak levels following ingestion ([6]; slowed by the presence of food): 1 to 2 h | Plasma half-life ([6]; up to the age of 20): approximately 3.5 hours
